Counter-ions that a name gives are not always drawn.
Columns and labels:
human P2X4 receptor = human P2X4 receptor (Homo sapiens (Human), UniProt Q99571); experiment: P2X4 receptor antagonist activity (ATP-induced intracellular calcium, Fura-2 AM); format: cell-based; conditions: 1321N1 cells stably expressing human P2X4 receptor; test substance 15 minutes before ATP; read-out: Inhibitory activity IC50
[1] = tested on: Neurogenic pain model (modified Chung model); experiment: Analgesic activity, von Frey filament test in neurogenic pain model (modified Chung model); format: in vivo; conditions: rats, oral administration of 50 mg/kg, day 9 after the modified Chung operation; significant difference compared with vehicle group
Procedure: Neurogenic pain model (modified Chung model) was prepared according to the description of Non-patent document 9. More specifically, under isoflurane anesthesia, back hair of rats was extensively shaved, the shaved parts were wiped with rubbing alcohol, the rate were fixed on an incubator in the abdominal position, and the skins were cut and opened along the dorsal median line on the upper and lower sides of the sacroiliac bone. The left lateral paravertebral muscle was separated in the sacral region, and then the ligament was separated. The sacroiliae rim and the upper part thereof were cut and opened along the pyramid, the L5 nerve was ligated, and the nerve was cut on the peripheral side. […]
The pain threshold value (paw withdrawal threshold (g)) was calculated according to the up down method by stimulating the sole with a von Frey filament (Stoelting Co., TOUCH-TEST SENSORY EVALUATOR) and determining presence or absence of withdrawal response.
As the von Frey filaments, seven filaments giving different stimulation strengths were used. The 50% threshold value was calculated according to the up down method by referring to the method of Chaplan et al. (Chaplan S R, Bach F W, Pogrel J W, Chung J M, Yaksh T L.: Quantitative assessment of tactile allodynia in the rat paw, J. Neurosci. Methods, 53:55-63 (1994). […]

human P2X4 receptor, sequence (Q99571 whole entry): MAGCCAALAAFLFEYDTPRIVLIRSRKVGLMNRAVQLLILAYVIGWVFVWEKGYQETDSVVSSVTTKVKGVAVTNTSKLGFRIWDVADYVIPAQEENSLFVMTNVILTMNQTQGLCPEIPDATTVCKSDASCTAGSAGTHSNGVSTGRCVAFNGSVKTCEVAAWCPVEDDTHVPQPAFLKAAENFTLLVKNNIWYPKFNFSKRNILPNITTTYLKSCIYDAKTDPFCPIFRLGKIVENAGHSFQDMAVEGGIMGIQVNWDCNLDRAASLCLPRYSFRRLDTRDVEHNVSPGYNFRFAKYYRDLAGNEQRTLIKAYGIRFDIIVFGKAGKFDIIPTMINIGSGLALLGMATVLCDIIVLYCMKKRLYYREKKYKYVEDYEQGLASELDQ

Question: Which IC50 (human P2X4 receptor) does the source give for `O=C(Cc1ccccc1Cl)Nc1ccc(N2C(=O)CC(=O)Nc3c2ccc2ccccc32)cc1` [Example 13, 5-[4-[(2-Chlorophenylacetyl)amino]phenyl]-1H-naphtho[1,2-b][1,4]diazepine-2,4(3H,5H)-dione] here?
Answer: 540 nM

Question: With `O=C1CC(=O)N(c2ccc(NC(=O)Nc3ccccc3)cc2)c2ccc3ccccc3c2N1` [Example 20, 1-[4-(2,4-Dioxo-1,2,3,4-tetrahydronaphtho[1,2-b][1,4]diazepin-5-yl)phenyl]-3-phenylurea] as the molecule, how does the IC50 (human P2X4 receptor) read?
Answer: 1200 nM

Question: How did the “pain threshold value (paw withdrawal threshold) of the diseased limb” value [1] turn out when `O=C1CC(=O)N(c2ccc(NC(=O)c3ccccc3I)cc2)c2ccc3ccccc3c2N1` [Example 48, 5-[4-(2-Iodobenozoylamino)phenyl]-1H-naphtho[1,2-b][1,4]diazepine-2,4(3H,5H)-dione] was run?
Answer: raised the pain threshold value of the diseased limb

Question: With `O=C1CC(=O)N(c2ccc(NC(=O)c3c(O)cccc3Cl)cc2)c2ccc3ccccc3c2N1` [Example 118, 5-[4-(6-Chloro-2-hydroxybenzoylamino)phenyl]-1H-naphtho[1,2-b][1,4]diazepine-2,4(3H,5H)-dione] as the molecule, how does the IC50 (human P2X4 receptor) read?
Answer: 1100 nM

Question: And the “pain threshold value (paw withdrawal threshold) of the diseased limb” value [1]?
Answer: raised the pain threshold value of the diseased limb

Question: Which IC50 (human P2X4 receptor) does the source give for `CN(c1ccc(N2C(=O)CC(=O)Nc3c2ccc2c3CCCC2)cc1)S(=O)(=O)Cc1ccccc1Cl` [Example 196, 1-(2-Chlorophenyl)-N-[4-(2,4-dioxo-1,2,3,4,8,9,10,11-octahydronaphtho[1,2-b][1,4]diazepin-5-yl)phenyl]-N-methylmethanesulfonamide] here?
Answer: 970 nM

Question: With `O=C1CN=C(c2ccc(NS(=O)(=O)Cc3ccccc3Cl)cc2)c2ccc3ccccc3c2N1` [Example 197, 1-(2-Chlorophenyl)-N-[4-(2-oxo-2,3-dihydro-1H-naphtho[1,2-e][1,4]diazepin-5-yl)phenyl]methanesulfonamide] as the molecule, how does the IC50 (human P2X4 receptor) read?
Answer: 440 nM

Question: `Cc1ncccc1C(=O)Nc1ccc(N2C(=O)CC(=O)Nc3c2ccc2ccccc32)cc1` [Example 208, 5-[4-[(2-Methylpyridin-3-yl)carbonylamino]phenyl]-1H-naphtho[1,2-b][1,4]diazepine-2,4(3H,5H)-dione hydrochloride] was tested. Which IC50 (human P2X4 receptor) did it give?
Answer: 1300 nM

Question: `O=C1CC(=O)N(c2ccc(NC(=O)c3cccnc3Cl)cc2)c2ccc3ccccc3c2N1` [Example 209, 5-[4-[(2-Chloropyridin-3-yl)carbonylamino]phenyl]-1H-naphtho[1,2-b][1,4]diazepine-2,4(3H,5H)-dione] was tested. Which IC50 (human P2X4 receptor) did it give?
Answer: 940 nM

Question: With `O=C(COc1ccccn1)Nc1ccc(N2C(=O)CC(=O)Nc3c2ccc2ccccc32)cc1` [Example 210, 5-[4-[2-[(Pyridin-2-yl)oxy]acetylamino]phenyl]-1H-naphtho[1,2-b][1,4]diazepine-2,4(3H,5H)-dione] as the molecule, how does the IC50 (human P2X4 receptor) read?
Answer: 1400 nM
